Data from patent US7094909B2, “HIV protease inhibitors, compositions containing the same, their pharmaceutical uses and materials for their synthesis” (priority 2001, dated 2006).
Read-outs that look alike come from different tables or passages of the source.

Key:
[1] = test system: HIV-1 (HIV-1 RF, HIV-1 NL4-3) in CEM-SS / MT-2 cells; experiment: Cytopathic effect (CPE) inhibition assay (XTT/MTT dye reduction); assay type: cell-based
Outline: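 CEM-SS or MT-2 cells were infected with HIV-1 RF or NL4-3 (moi 0.025–0.819) and plated at 2×10^4 cells/well with half-log compound dilutions for 6 days. Viability was read by XTT formazan at 450 nm after 4 h. EC50 restores formazan to 50% of uninfected untreated cells, CC50 halves it in uninfected cells, and TI = CC50/EC50.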

[2] = test system: HIV-1 NL4-3 or HIV-1 NL4-3(I84V/L90M); experiment: Susceptibility assay, p24 ELISA in infected MT-2 cells; assay type: cell-based; conditions: Human immunodeficiency virus 1, NL43, MT2, read-out: EC50 or IC50 (mM), values without asterisk (EC50)
Procedure: T-cell lines, CEM-SS, and MT-2, and viruses HIV-1 RF and HIV-1 NL4-3 (pNL4-3) were obtained from the National Institutes of Health (AIDS Research and Reference Reagent Program, Bethesda, Md.).
Compounds were tested in phenotypic susceptibility assays at Virologic, Inc., (See Petropoulos C. J., Parkin N. T., Limoli K. L., Lie Y. S., Wrin T., Huang W., Tian H., Smith D., Winslow G. A., Capon D J, Whitcomb J M. 2000, “A novel phenotypic drug susceptibility assay for human immunodeficiency virus type 1,” Antimicrob Agents Chemother 44(4):920–928) or using the assay described here. MT-2 cells were infected with either HIV-1 NL4-3 or HIV-1 NL4-3([…]) and incubated in the presence of serial 0.5 log dilutions of test compounds. Three days later, culture supernatants were collected and virus production, as determined by p24 ELISA, was assayed. Percent inhibition was calculated as p24 concentration in compound-treated samples as compared to infected, compound-free controls. Inhibition of viral replication is determined by measuring reduction in HIV p24 present in the culture supernatant, using a Beckman-Coulter p24HIV-1 Ag EIA kit and following the supplied protocol. Absorbance is read on a MRX microplate reader (Dynex Technologies). The EC50 was calculated as the concentration of compound that effected a decrease in the p24 production by infected, compound-treated cells to 50% of that produced by infected, compound-free cells.

[3] = target: T1, HIV-1 protease (Q7S mutant form) (Human immunodeficiency virus type 1 group M subtype B, UniProt P04585, Q495S); experiment: HIV-1 Protease RET assay; assay type: biochemical; conditions: Ave. Ki (nM), RET assay, Q7S enzyme, Morrison tight binding fit
T1 construct: made in house
Outline: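 Q7S HIV-1 protease, refolded from urea, 2 nM active dimer with 5 μM EDANS/DABCYL peptide cleaved at Tyr-Pro; fluorescence 340/490 nm. 12 min at 37 °C in 0.1M sodium acetate pH 4.8, 1M NaCl, 10% DMSO. Ki from Morrison tight-binding fit.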

[4] = Human immunodeficiency virus 1, NL43, read-out: Ave CPE EC50

Cc1ccc(F)cc1CNC(=O)[C@H]1N(C(=O)[C@@H](O)[C@H](Cc2ccccc2)NC(=O)c2cccc(O)c2C)CSC12CCCC2 [Example C36, (R)-3-((2S,3S)-2-Hydroxy-3-{[1-(3-hydroxy-2-methyl-phenyl)-methanoyl]-amino}-4-phenyl-butanoyl)-1-thia-3-aza-spiro[4.4]nonane-4-carboxylic acid 5-fluoro-2-methyl-benzylamide]
EC50 [1, 4]: 50 nM
EC50 [2]: 666 nM
Ki [3]: < 0.1 nM

Cc1c(O)cccc1C(=O)N[C@@H](Cc1ccccc1)[C@H](O)C(=O)N1CSC2(CCC2)[C@H]1C(=O)N[C@@H]1C=CCCC1 [Example C39, (R)-7-((2S,3S)-2-Hydroxy-3-{[1-(3-hydroxy-2-methyl-phenyl)-methanoyl]-amino}-4-phenyl-butanoyl)-5-thia-7-aza-spiro[3.4]octane-8-carboxylic acid (S)-cyclohex-2-enylamide]
EC50 [1, 4]: 13 nM
EC50 [2]: 404 nM
Ki [3]: < 0.1 nM

C/C=C(\C)CNC(=O)[C@H]1N(C(=O)[C@@H](O)[C@H](Cc2ccccc2)NC(=O)c2cccc(O)c2C)CSC12CCCC2 [Example C34, (R)-3-((2S,3S)-2-Hydroxy-3-{[1-(3-hydroxy-2-methyl-phenyl)-methanoyl]-amino}-4-phenyl-butanoyl)-1-thia-3-aza-spiro[4.4]nonane-4-carboxylic acid ((E)-2-methyl-but-2-enyl)-amide]
EC50 ([1]; Human immunodeficiency virus 1, NL43, read-out: Ave CPE EC50 (mM)): 22 nM
EC50 [2]: 627 nM
Ki [3]: < 0.1 nM

Cc1c(O)cccc1C(=O)N[C@@H](Cc1ccccc1)[C@H](O)C(=O)N1CSC(C)(C)[C@H]1C(=O)N[C@H]1CCCc2sccc21 [Example A50, 3-[2-Hydroxy-3-(3-hydroxy-2-methyl-benzoylamino)-4-phenyl-butyryl]-5,5-dimethyl-thiazolidine-4-carboxylic acid (4,5,6,7-tetrahydro-benzo[b]thiophen-4-yl)-amide]
EC50 [1, 4]: 24 nM
EC50 [2]: 125 nM
Ki [3]: < 0.1 nM

Cc1ccncc1CNC(=O)[C@H]1N(C(=O)[C@@H](O)[C@H](Cc2ccccc2)NC(=O)c2cccc(O)c2C)CSC1(C)C [Example A22, 3-(2-Hydroxy-3-{[1-(3-hydroxy-2-methyl-phenyl)-methanoyl]-amino}-4-phenyl-butanoyl)-5,5-dimethyl-thiazolidine-4-carboxylic acid-(4-methyl-pyridin-3-ylmethyl)amide]
EC50 [1, 4]: 138 nM
EC50 [2]: 318 nM
Ki [3]: < 0.1 nM

Cc1ccccc1CNC(=O)[C@H]1N(C(=O)[C@@H](O)[C@H](Cc2ccccc2)NC(=O)c2cccc(O)c2C)CSC12CCCC2 [Example C30, 3-(2-Hydroxy-3-{[1-(3-hydroxy-2-methyl-phenyl)-methanoyl]-amino}-4-phenyl-butanoyl)-1-thia-3-aza-spiro [4.4]nonane-4-carboxylic acid 2-methyl-benzamide]
EC50 [1, 4]: 18 nM
EC50 [2]: 273 nM
Ki [3]: < 0.1 nM

C#CCNC(=O)[C@H]1N(C(=O)[C@@H](O)[C@H](Cc2ccccc2)NC(=O)c2cccc(O)c2C)CC(F)(F)C1(C)C [Example C17, (S)-4,4-Difluoro-1-[(2S,3S)-2-hydroxy-3-(3-hydroxy-2-methyl-benzoylamino)-4-phenyl-butyryl]-3,3-dimethyl-pyrrolidine-2-carboxylic acid prop-2-ynylamide]
EC50 [1, 4]: 115 nM
EC50 [2]: 186 nM
Ki [3]: < 0.1 nM

CCCNC(=O)[C@H]1N(C(=O)[C@@H](O)[C@H](Cc2ccccc2)NC(=O)c2cccc(O)c2C)CSC12CCC2 [Example C38, (R)-7-((2S,3S)-2-Hydroxy-3-{[1-(3-hydroxy-2-methyl-phenyl)-methanoyl]-amino}-4-phenyl-butanoyl)-5-thia-7-aza-spiro[3.4]octane-8-carboxylic acid propylamide]
EC50 [1, 4]: 42 nM
EC50 [2]: 1310 nM
Ki [3]: < 0.1 nM

COc1ccc(CNC(=O)[C@H]2N(C(=O)[C@@H](O)[C@H](Cc3ccccc3)NC(=O)c3cccc(O)c3C)CC(F)(F)C2(C)C)cc1 [Example C25, (S)-4,4-Difluoro-1-[(2S,3S)-2-hydroxy-3-(3-hydroxy-2-methyl-benzoylamino)-4-phenyl-butyryl]-3,3-dimethyl-pyrrolidine-2-carboxylic acid 4-methoxy-benzylamide]
EC50 [1, 4]: 31 nM
EC50 [2]: 68 nM
Ki [3]: < 0.1 nM

Cc1ccccc1CNC(=O)[C@H]1N(C(=O)[C@@H](O)[C@H](Cc2ccccc2)NC(=O)c2cccc(O)c2C)CSC12CCC2 [Example C32, 7-(2-Hydroxy-3-{[1-(3-hydroxy-2-methyl-phenyl)-methanoyl]-amino}-4-phenyl-butanoyl)-5-thia-7-aza-spiro[3.4]octane-8-carboxylic acid-2-methyl benzylamide]
EC50 [1, 4]: 9 nM
EC50 [2]: 190 nM
Ki [3]: < 0.1 nM

Cc1ccccc1C(=O)N[C@@H](Cc1ccccc1)[C@H](O)C(=O)N1CSC(C)(C)[C@H]1C(=O)N[C@@H]1C=CCCC1 [Example B80, (R)-3-{(2S,3S)-2-Hydroxy-4-phenyl-3-[(1-o-tolyl-methanoyl)-amino]-butanoyl}-5,5-dimethyl-thiazolidine-4-carboxylic acid (S)-cyclohex-2-enylamide]
EC50 [1, 4]: 419 nM
EC50 [2]: 1380 nM
Ki [3]: 0.15 nM

Cc1c(O)cccc1C(=O)N[C@@H](Cc1ccccc1)[C@H](O)C(=O)N1CSC(C)(C)[C@H]1C(=O)N[C@H]1CCc2cc(F)ccc21 [Example A56, (R)-3-((2S,3S)-2-Hydroxy-3-{[1-(3-hydroxy-2-methyl-phenyl)-methanoyl]-amino}-4-phenyl-butanoyl)-5,5-dimethyl-thiazolidine-4-carboxylic acid ((S)-5-fluoro-indan-1-yl)-amide]
EC50 [1, 4]: 42 nM
EC50 [2]: 378 nM
Ki [3]: 0.27 nM

Cc1c(O)cccc1C(=O)N[C@@H](Cc1ccccc1)[C@H](O)C(=O)N1COC(C)(C)[C@H]1C(=O)N[C@H]1CCc2ccccc21 [Example C27, (S)-3-((2S,3S)-2-Hydroxy-3-{[1-(3-hydroxy-2-methyl-phenyl)-methanoyl]-amino}-4-phenyl-butanoyl)-5,5-dimethyl-oxazolidine-4-carboxylic acid (S)-indan-1-ylamide]
EC50 [1, 4]: 115 nM
EC50 [2]: 189 nM
Ki [3]: 0.13 nM

Cc1c(O)cccc1C(=O)N[C@@H](Cc1ccccc1)[C@H](O)C(=O)N1CC(F)(F)C(C)(C)[C@H]1C(=O)NCC(F)(F)F [Example C23, (S)-4,4-Difluoro-1-[(2S,3S)-2-hydroxy-3-(3-hydroxy-2-methyl-benzoylamino)-4-phenyl-butyryl]-3,3-dimethyl-pyrrolidine-2-carboxylic acid (2,2,2-trifluoro-ethyl)-amide]
EC50 [1, 4]: 37 nM
EC50 [2]: 109 nM
Ki [3]: < 0.1 nM

C=CCOC(=O)N[C@@H](Cc1ccccc1)[C@H](O)C(=O)N1CSC(C)(C)[C@H]1C(=O)NCc1ccccc1C [Example B11, {(1S,2S)-1-Benzyl-3-[(R)-5,5-dimethyl-4-(2-methyl-benzylcarbamoyl)-thiazolidin-3-yl]-2-hydroxy-3-oxo-propyl}-carbamic acid allyl ester]
EC50 [1, 4]: 567 nM
EC50 [2]: 2020 nM
Ki [3]: 0.86 nM

Cc1c(O)cccc1C(=O)N[C@@H](Cc1ccccc1)[C@H](O)C(=O)N1CSC(C)(C)[C@H]1C(=O)NCc1ccc2c(c1)CCO2 [Example A9, (R)-3-((2S,3S)-2-Hydroxy-3-{[1-(3-hydroxy-2-methyl-phenyl)-methanoyl]-amino}-4-phenyl-butanoyl)-5,5-dimethyl-thiazolidine-4-carboxylic acid (2,3-dihydro-benzofuran-5-ylmethyl)-amide]
EC50 [1, 4]: 138 nM
EC50 [2]: 1080 nM
Ki [3]: 0.49 nM

Cc1c(O)cccc1C(=O)N[C@@H](Cc1ccccc1)[C@H](O)C(=O)N1CC(F)(F)C[C@H]1C(=O)N[C@@H]1C=CCCC1 [Example C4, (S)-4,4-Difluoro-1-((2S,3S)-2-hydroxy-3-{[1-(3-hydroxy-2-methyl-phenyl)-methanoyl]-amino}-4-phenyl-butanoyl)-pyrrolidine-2-carboxylic acid (S)-cyclohex-2-enylamide]
EC50 [1, 4]: 236 nM
EC50 [2]: 1900 nM
Ki [3]: 0.17 nM
